Measurements reported in patent publication US6683079B2, “3-(amino-or aminoalkyl) pyridinone derivatives and their use for the treatment of HIV related diseases” (Centre National de la Recherche Scientifique, priority 1998, dated 2004).

Columns and labels:
HIV-1 strain 103 N = assay: Retrovirucidal effect on HIV-1 strain 103 N (Table 3); type: cell-based
Procedure: HIV-1 viral suspensions were obtained by coculture of MT4 cells and H9 cells chronically infected by HIV-ILai isolate. 200 μl of a cell supernatant containing viral particles (HIV-ILai: 100 TCID50) were incubated at room temperature with various concentrations of different inhibitors. After 3 hours, virions were washed through 0.02 μm anopore membrane in 1.5 mL Vectaspin tube (Whatman) for 10 minutes at 5 000 g. Each of the three subsequent washes was performed in the same conditions after the viral concentrate was refilled with 500 μL of RPMI medium. Then, the viral concentrate was readjusted to the initial volume with RPMI plus 10% foetal calf serum (FCS). The residual infectivity was assayed on P4 cells as described by CHARNEAU et al. (1994, J. Mol. Biol., 241, 651-662). Briefly, P4 cells were plated using 100 μL of DMEM medium plus 10% FCS in 96 plate multi-wells at 20×10^5 cells per mL. After overnight incubation at 37° C., the supernatant was discarded and the viral preparation (200 μL) was added. One day later the wells were washed three times in PBS. Each well was refilled with 200 μL of a reaction buffer containing 50 mM Tris-HCl pH 8.5, 100 mM 2-mercaptoethanol, 0.05% Triton X-100 and 5 mM 4-methylumbelliferyl β-D-galactopyranoside (MUG). After 3 hours at 37° C., the level of the reaction was measured in a fluorescence microplate reader.
The retrovirucidal effect of each pyridinone derivative listed in table 3 has been assayed according to the teachings of example 2, excepted that the anti-viral effect has been tested on the two following HIV-1 strains:
b) HIV-1 strain 103 N which is a mutant strain bearing a point mutation in the reverse transcriptase gene leading to an enzyme wherein the initial Lys-103 residue is replaced for a Asn residue.
The HIV-1 103 N strain has also been described by SAHLBERG et al.,(1998, Antiviral Res., 37 (3): ASS) and BALZARiNI et al. (1996, Antimicrobial Agents and Chemotherapy, 40 (6): 1454-1466).

HIV-1 strain IIIB = assay: Retrovirucidal effect on HIV-1 strain IIIB (Table 3); type: cell-based
How it was run: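 Virus (100 TCID50 HIV-1 in cell supernatant) exposed to compound 3 h at room temperature, then washed free of compound by membrane filtration. Residual infectivity measured on P4 cells after one day as β-galactosidase activity with MUG substrate (3 h, 37° C), read by fluorescence.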

[1] = HIV-1 strain 103N (RT Lys-103 to Asn mutant), pIC50=-log IC50, IC50 in M

Compound	HIV1 pIC50 strain 103N (HIV-1 strain 103 N; [1])	HIV1 pIC50 strain IIIB (HIV-1 strain IIIB; pIC50=-log IC50, IC50 in M)	HIV1 pIC50 strain 103N (HIV-1 strain 103 N; retrovirucidal effect, HIV-1 strain 103N (Lys-103 to Asn RT mutant), pIC50=-log IC50 (M))	HIV1 pIC50 strain IIIB (HIV-1 strain IIIB; retrovirucidal effect, pIC50=-log IC50 (M))
Cc1cccc(C(=O)c2c(C)c(C)[nH]c(=O)c2N(C)C)c1 [Compound 96]	6.37	7.824		
CCc1c(C)[nH]c(=O)c(N)c1CN(C)Cc1ccccc1 [Compound 97]	<4	<4		
CCc1cccc(Cc2c(CC)c(C)[nH]c(=O)c2N)c1 [Compound 98]	4.978	5.358		
CCc1cccc(Cc2c(CC)c(C)[nH]c(=O)c2N(C)C)c1 [Compound 99]	6.718	8.569		
Cc1cc(C)cc(Cc2cc(C)[nH]c(=O)c2N)c1 [Compound 100]	<4	4.871		
Cc1cc(C)cc(Cc2cc(C)[nH]c(=O)c2N(C)C)c1 [Compound 101]	4.25	6.341		
CCc1c(C)[nH]c(=O)c(N(C)C)c1CN(C)Cc1ccccc1 [Compound 102]	<4	4.369		
CCCc1cccc(Cc2c(CC)c(C)[nH]c(=O)c2N(C)C)c1 [Compound 104]	7.058	8		
CCc1c(C)[nH]c(=O)c(N(C)C)c1Cc1cccc(OC)c1 [Compound 121]	6.948	8.469		
CCc1c(C)[nH]c(=O)c(N(C)CCCCCO)c1Cc1cc(C)cc(C)c1 [Compound 123]	6.918	8.444		
CCc1c(C)[nH]c(=O)c(N(C)C(C)COC)c1Cc1cc(C)cc(C)c1 (centres unmarked) [Compound 129]	7.057	8.398		
CCc1c(C)[nH]c(=O)c(N(C)CCOC)c1Cc1cccc(C)c1 [Compound 136]	6.996	9		
CCc1c(C)[nH]c(=S)c(N(C)C)c1C(=O)c1cc(C)cc(C)c1 [Compound 138]	7.401	8.215		
CCc1c(C)[nH]c(=O)c(N(C)CCO)c1Cc1cccc(C)c1 [Compound 145]	6.028	8.42		
CCc1c(C)[nH]c(=O)c(N(C)C)c1Sc1cc(C)cc(C)c1 [Compound 149]	7.883	8.959		
CCc1c(C)[nH]c(=O)c(N(C)CCCCCO)c1Cc1cccc(C)c1 [Compound 154]	6.262	8.009		
CCc1c(C)[nH]c(=O)c(N(C)C)c1C(=O)c1ccc(C)o1 [Compound 158]	6.625	8.041		
CCc1c(C)[nH]c(=O)c(N(C)C)c1Sc1cccc(C)c1 [Compound 160]	7.177	8.678		
CCc1c(C)[nH]c(=O)c(N(C)CCOC)c1Cc1cccc(C(F)(F)F)c1 [Compound 161]	5.814	7.821		
CCc1c(C)[nH]c(=O)c(N(C)C)c1COc1cccc(C)c1 [Compound 162]	5.026	6.418		
CCc1c(C)[nH]c(=O)c(N(C)C)c1CNc1cccc(C)c1 [Compound 163]	4.236	5.596		
CCc1c(C)[nH]c(=O)c(N(C)CC=C(C)C)c1Cc1cccc(C)c1 [Compound 164]	6.505	7.818		

Compound	HIV1 pIC50 strain 103N (HIV-1 strain 103 N; [1])	HIV1 pIC50 strain IIIB (HIV-1 strain IIIB; pIC50=-log IC50, IC50 in M)	HIV1 pIC50 strain 103N (HIV-1 strain 103 N; retrovirucidal effect, HIV-1 strain 103N (Lys-103 to Asn RT mutant), pIC50=-log IC50 (M))	HIV1 pIC50 strain IIIB (HIV-1 strain IIIB; retrovirucidal effect, pIC50=-log IC50 (M))
CCc1c(C)[nH]c(=O)c(N(C)C)c1C(O)Cc1cccc(C)c1 (centres unmarked) [Compound 165]	<4	4.354		
CCc1c(C)[nH]c(=O)c(N(C)C)c1CSc1cccc(C)c1 [Compound 166]	4.518	5.693		
CCc1c(C)[nH]c(=O)c(N(C)C)c1CNc1ccc(C#N)cc1 [Compound 167]	5.828	6.338		
CCc1c(C)[nH]c(=O)c(N)c1C(=O)c1ccc(OC)c(C)c1 [Compound 168]	4.806	4.525		
CCc1c(C)[nH]c(=O)c(N(C)C)c1C(=O)c1ccc(OC)c(C)c1 [Compound 169]	5.771	7.101		
CCc1c(C)[nH]c(=O)c(N(C)C)c1[S+]([O-])c1cc(C)cc(C)c1 (centres unmarked) [Compound 170]	7.224	8.553		
CCc1c(C)[nH]c(=O)c(N(C)C)c1CNc1ncccn1 [Compound 171]	4.74	5.895		
Cc1cc(C)cc(Cc2c3c([nH]c(=O)c2N)CCCC3)c1 [Compound 172]	4.903	6.419		
Cc1cc(C)cc(Cc2c3c([nH]c(=O)c2N(C)C)CCCC3)c1 [Compound 173]	6.489	8.086		
CCc1c(C)[nH]c(=O)c(N(C)C)c1C(=O)c1cccc(Br)c1 [Compound 174]	7.68	8.921		
CCc1c(C)[nH]c(=O)c(N(C)CCOC)c1C(=O)c1cccc(C)c1 [Compound 175]	7.717	8.921		
CCc1c(C)[nH]c(=O)c(N(C)C)c1Nc1cccc(C)c1 [Compound 176]	6.436	8.432		
CCc1c(C)[nH]c(=O)c(N)c1C(=O)c1cccs1 [Compound 177]	<4	5.106		
CCc1c(C)[nH]c(=O)c(N(C)C)c1C(=O)c1cccs1 [Compound 178]	6.461	7.873		
CCc1c(C)[nH]c(=O)c(NC)c1C(=O)c1cccc(Br)c1 [Compound 179]	7.182	8.42		
CCc1c(C)[nH]c(=O)c(N(C)CC)c1C(=O)c1cccc(Br)c1 [Compound 185]	7.433	8.745		
CCc1c(C)[nH]c(=O)c(N(C)C)c1C(=O)c1cc(Br)cs1 [Compound 187]	7.006	8.481		
CCc1c(C)[nH]c(=O)c(N(C)C)c1Cc1cc(Cl)cc(Cl)c1 [Compound 191]	7.553	8.097		
CCc1c(C)[nH]c(=O)c(N(C)C)c1C(=O)c1cc(Cl)cc(Cl)c1 [Compound 192]	8.319	8.699		
CCc1c(C)[nH]c(=O)c(N(C)C)c1Sc1cccc(Br)c1 [Compound 193]	7.245	8.481		
CCc1c(C)[nH]c(=O)c(N(C)C)c1Oc1cc(C)cc(C)c1 [Compound 201]			7.231	8.585
